Values of other authors, collected in publication PMC2600787, “Flanking p10 contribution and sequence bias in matrix based epitope prediction: revisiting the assumption of independent binding pockets” (BMC Structural Biology, 2008).

System: HLA-DR1
Parameters: method as in 2 sources, ref Geluk et al. [32] ||| ref [32] = [32]; PMID 9753297; doi:10.2337/diabetes.47.10.1594; Geluk A van Meijgaarden KE Schloot NC Drijfhout JW Ottenhoff TH Roep BO HLA-DR binding analysis of peptides from islet antigens in IDDM Diabetes 1998 47 1594 1601 9753297 10.2337/diabetes.47.10.1594; pIC50exp: unit not given here
Conditions: according to IC50 binding measurements; ref [32]
From the text: Anchor residues at dominant pockets p1, p4, p6 and p9 are as expected for DR1 [12].

| Substance | binding to DR1 (in words) |
| --- | --- |
| SCSKVDVNYAFLHATDLLPA [peptide 9, 20-mer peptide from GAD65] | strong binder |

Same assay, conditions: experimental binding affinity to HLA-DR1; logarithmic transform of IC50; 20-mer peptides from GAD65 (1 through 100) and ICA69 (101 and above), pruned to remove poor binders; ref Geluk et al. [32]

| Substance | pIC50exp |
| --- | --- |
| 115: 20-mer peptide from ICA69 (VETFRHRAISDTWLTVNRME) [compound 115] | 1.10 |
| LQDVMNILLQYVVKSFDRST [peptide 12, 20-mer peptide from GAD65] | -0.60 |
| LVSATAGTTVYGAFDPLLAV [peptide 33, 20-mer peptide from GAD65] | 0.05 |
| MASPGSGFWSFGSEDGSGDS [peptide 1, 20-mer peptide from GAD65] | -0.70 |
| SCSKVDVNYAFLHATDLLPA [peptide 9, 20-mer peptide from GAD65] | 1.52 |
| YVVKSFDRSTKVIDFHYPNE [peptide 13, 20-mer peptide from GAD65] | -0.77 |

Results, then the substance that gave them:

| pIC50exp | Substance |
| --- | --- |
| 0.10 | AIHESFKGYQPYEFTTLKSL [peptide 126, 20-mer peptide from ICA69] |
| 0.22 | DPDLYKQMEKFRKVQTQVRL [peptide 119, 20-mer peptide from ICA69] |
| 0.00 | FRKVQTQVRLAKKNFDKLKM [peptide 120, 20-mer peptide from ICA69] |
| 1.10 | QCRTEYRGALLWMKDVSQEL [peptide 117, 20-mer peptide from ICA69] |
| 0.52 | RKESSSFKTEDGKSILSALD [peptide 132, 20-mer peptide from ICA69] |
| 1.00 | SVVNKMQQRYWETKQAFIKA [peptide 103, 20-mer peptide from ICA69] |

Molecular target: HLA-DRB3*0101 (HLA-DR52a) (Homo sapiens, UniProt P01903+P79483)
Conditions: earlier structural and binding studies; crystallography CSP, unpublished; ref not given
From the text: Results from structural and binding studies using the peptide […] in complex with HLA-DRB3*0101 (HLA-DR52a) show a contribution from position p10. 24-[…]-39, from the N-terminus of human […] is a major ligand of DR52a. A natural variant of the epitope widely distributed in the population is 24-[…]-39. The Leu33/Pro33 dimorphism is the basis of the unidirectional alloimmune posttransfusion thrombocytopenia purpura (PTP) and fetal-maternal alloimmune thrombocytopenia (FMAIT), severe blood disorders in some DR52a subjects homozygous in Pro33 [[2 ...

| Substance | binding to DR52a (in words) |
| --- | --- |
| AWCSDEALPPGSPRCD | does not bind |
| AWCSDEALPPLS [Pro33 integrin peptide with leucine replacing glycine at position 10] | has been demonstrated to bind |

Results, then the substance that gave them:

| binding to DR52a (in words) | Substance |
| --- | --- |
| major ligand | AWCSDEALPLGSPRCD [peptide from the N-terminus of human integrin α2βIIIa, a major ligand of DR52a] |
| does not bind | AWCSDEALPPGS [shorter Pro33 integrin peptide] |
